Earlier results in patent US20100129448A1, “TOPICAL HYDROGEL COMPOSITION” (Nanotherapeutics, Inc., priority 2008, published 2010).

C[C@H]1c2cccc(O)c2C(=O)C2=C(O)[C@]3(O)C(=O)C(C(N)=O)=C(O)[C@@H](N(C)C)[C@@H]3[C@@H](O)[C@@H]21 [Doxycycline Monohydrate]
aqueous solubility (pH greater than 6): less than 0.8 mg/ml

C[C@H]1c2cccc(O)c2C(=O)C2=C(O)[C@]3(O)C(=O)C(C(N)=O)=C(O)[C@@H](N(C)C)[C@@H]3[C@@H](O)[C@@H]21 [Doxycycline]
solubility (neutral pH): less than 10 mg/ml
